From patent US20160145247A1, “Aminomethyl-Biaryl Derivatives Complement Factor D inhibitors and uses thereof” (NOVARTIS AG, priority 2013, published 2016)

target: T1, factor D (Homo sapiens, UniProt P00746); assay: factor D inhibition assay of Biological Example 2; assay type: biochemical
T1 construct: made in house; host or cells: E. coli
T1 sequence (P00746 26-253): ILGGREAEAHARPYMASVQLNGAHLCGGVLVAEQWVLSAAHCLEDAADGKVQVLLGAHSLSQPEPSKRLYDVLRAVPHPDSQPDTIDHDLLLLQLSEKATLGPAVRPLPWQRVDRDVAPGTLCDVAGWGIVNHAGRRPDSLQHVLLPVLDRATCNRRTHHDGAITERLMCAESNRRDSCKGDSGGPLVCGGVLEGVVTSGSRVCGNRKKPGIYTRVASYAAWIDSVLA

First: C[C@@H](N)c1cccc(-c2cc(COc3ccccc3CC(=O)O)cc(OCCN3CCCC3)c2)c1F [Example 214-G]
Second: C[C@H](N)c1cccc(-c2cc(COc3ccccc3CC(=O)O)cc(OCCF)c2)c1F [Example 214-O]
The IC50 of the first is 3.2-fold lower: 0.022 µM for the first, 0.071 µM for the second.

Going from `CC(C)(N)c1cccc(-c2cccc(COc3ccccc3CC(=O)O)c2)c1F` [Example 190-L] to `Cc1ccc(-c2cccc([C@H](C)N)c2F)cc1COc1ccccc1CC(=O)O` [Example 274, (S)-2-(2-((3′-(1-aminoethyl)-2′-fluoro-4-methyl-[1,1′-biphenyl]-3-yl)methoxy)phenyl)acetic acid], the IC50 falls from 3.27 µM to 0.34 µM (9.6-fold).

First: CCC[C@@H](N)c1cccc(-c2cc(CO)cc(COc3ccccc3CC(=O)O)c2)c1 [Example 117-B, (R)-2-(2-((3′-(1-Aminobutyl)-5-(hydroxymethyl)-[1,1′-biphenyl]-3-yl)methoxy)phenyl)acetic acid]
Second: CCCC[C@@H](N)c1cccc(-c2cccc(COc3ccccc3CC(=O)O)c2)c1 [Example 196-D]
The IC50 of the first is 7.7-fold lower: 0.083 µM for the first, 0.642 µM for the second.

Compared with `CCc1ccc(NC(=O)c2cc(NC[C@@H]3CCCO3)cc(-c3cc(F)cc(CN)c3)c2)c(CC(=O)O)c1` [Example 25-D, (S)-2-(2-(3′-(Aminomethyl)-5′-fluoro-5-(((tetrahydrofuran-2-yl)methyl)amino)-[1,1′-biphenyl]-3-ylcarboxamido)-5-ethylphenyl)acetic acid], `NCc1cc(F)cc(-c2cc(NC[C@@H]3CCCO3)cc(C(=O)Nc3ccccc3CC(=O)O)c2)c1` [Example 79-F] is 1.8-fold lower in IC50: 0.011 µM for the first, 0.006 µM for the second.

First: C[C@H](N)c1cccc(-c2cc(COc3ccccc3CC(=O)O)cc(OCc3nccs3)c2)c1F [Example 214-N]
Second: C[C@@H](N)c1cccc(-c2cc(COc3ccccc3CC(=O)O)cc(OCc3cccnc3)c2)c1F [Example 214-L]
The IC50 of the first is 2.4-fold lower: 0.005 µM for the first, 0.012 µM for the second.

Compared with `C[C@@H](N)c1cccc(-c2cc(COc3ccccc3CC(=O)O)c3c(c2)OCO3)c1` [Example 254, (R)-2-(2-((6-(3-(1-aminoethyl)phenyl)benzo[d][1,3]dioxol-4-yl)methoxy)phenyl)acetic acid], `C[C@@H](N)c1cccc(-c2ccnc(COc3ccccc3CC(=O)O)c2)c1` [Example 180, (R)-2-(2-((4-(3-(1-Aminoethyl)phenyl)pyridin-2-yl)methoxy)phenyl)acetic acid] is 4.7-fold higher in IC50: 0.032 µM for the first, 0.149 µM for the second.

Compared with `CCc1ccc(CC(=O)O)c(NC(=O)c2cccc(-c3cc(F)cc(CN)c3)n2)c1` [Example 21-O], `Cc1cccc(NC(=O)c2cccc(-c3cc(F)cc(CN)c3)c2)c1CC(=O)O` [Example 21-H] is 78-fold higher in IC50: 0.012 µM for the first, 0.94 µM for the second.

Compared with `C[C@@H](N)c1cccc(-c2cc(COc3ccccc3CC(=O)O)cc(NCC3(C)CC3)c2)c1F` [Example 227, (R)-2-(2-((3′-(1-aminoethyl)-2′-fluoro-5-(((1-methylcyclopropyl)methyl)amino)-[1,1′-biphenyl]-3-yl)methoxy)phenyl)acetic acid], `C[C@@H](N)c1cccc(-c2cc(COc3ccccc3CC(=O)O)cc(OCC3(C)CC3)c2)c1F` [Example 259-E, (R)-2-(2-((3′-(1-aminoethyl)-2′-fluoro-5-((1-methylcyclopropyl)methoxy)-[1,1′-biphenyl]-3-yl)methoxy)phenyl)acetic acid] is 2.2-fold higher in IC50: 0.01 µM for the first, 0.022 µM for the second. The first is the more potent here.

Going from `Cc1cc(CN)cc(-c2cccc(COc3ccccc3CC(=O)O)c2)c1` [Example 292-B, 2-(2-((3′-(aminomethyl)-5′-methyl-[1,1′-biphenyl]-3-yl)methoxy)phenyl)acetic acid] to `NCc1cc(F)cc(-c2cccc(COc3ccccc3CC(=O)O)c2)c1` [Example 187, 2-(2-((3′-(Aminomethyl)-5′-fluoro-[1,1′-biphenyl]-3-yl)methoxy)phenyl)acetic acid], the IC50 rises from 0.07 µM to 0.174 µM (2.5-fold). The first is the more potent here.

`C[C@@H](N)c1cccc(-c2cc(COCC(F)(F)F)cc(COc3ccccc3CC(=O)O)c2)c1F` [Example 120-M] and `C[C@@H](N)c1cccc(-c2cc(COCC(F)(F)F)cc(COc3ccccc3CC(=O)O)c2)c1` [Example 120-N] are within 1.5-fold of each other in IC50: 0.011 µM for the first, 0.015 µM for the second.

`C[C@@H](N)c1cccc(-c2cc(COc3ccccc3CC(=O)O)cc(OCc3cncn3C)c2)c1F` [Example 214-Q] and `C[C@H](N)c1cccc(-c2cc(COc3ccccc3CC(=O)O)cc(OCc3cncn3C)c2)c1F` [Example 214-P] are within 1.5-fold of each other in IC50: 0.01 µM for the first, 0.014 µM for the second.

`CC(C)OCc1cc(COc2ccccc2CC(=O)O)cc(-c2cccc([C@@H](C)N)c2F)c1` [Example 120-O] and `C[C@@H](N)c1cccc(-c2cc(Cl)cc(COc3ccccc3CC(=O)O)c2)c1F` [Example 216-S] are within 1.5-fold of each other in IC50: 0.024 µM for the first, 0.021 µM for the second.

`NCc1cccc(-c2cc(COc3ccccc3CC(=O)O)cc(-c3ccn[nH]3)c2)c1` [Example 209-B] and `NCc1cccc(-c2cc(COc3ccccc3CC(=O)O)cc(C(N)C(F)(F)F)c2)c1` (racemic) [Example 207-B, (±)-2-(2-((5-(1-Amino-2,2,2-trifluoroethyl)-3′-(aminomethyl)-[1,1′-biphenyl]-3-yl)methoxy)phenyl)acetic acid] are within 1.5-fold of each other in IC50: 0.004 µM for the first, 0.005 µM for the second.

Going from `C[C@@H](N)c1cccc(-c2cc(COc3ccccc3CC(=O)O)cc(NC[C@H]3CCCO3)c2)n1` [Example 225-C, 2-(2-((3-(6-((R)-1-aminoethyl)pyridin-2-yl)-5-((((R)-tetrahydrofuran-2-yl)methyl)amino)benzyl)oxy)phenyl)acetic acid] to `N[C@@H](CF)c1cccc(-c2cc(COc3ccccc3CC(=O)O)cc(NCC3CC3)c2)c1F` [Example 216-B], the IC50 rises from 0.016 µM to 0.056 µM (3.5-fold). The first is the more potent here.

`COCCOc1cc(C(=O)Nc2ccccc2CC(=O)O)cc(-c2cc(F)cc(CN)c2)c1` [Example 73-C, 2-(2-(3′-(Aminomethyl)-5′-fluoro-5-(2-methoxyethoxy)-[1,1′-biphenyl]-3-ylcarboxamido)phenyl)acetic acid] and `Cn1ccc(COc2cc(C(=O)Nc3ccccc3CC(=O)O)cc(-c3cc(F)cc(CN)c3)c2)n1` [Example 69, 2-(2-(3′-(Aminomethyl)-5′-fluoro-5-((1-methyl-1H-pyrazol-3-yl)methoxy)-[1,1′-biphenyl]-3-ylcarboxamido)phenyl)acetic acid] are within 1.5-fold of each other in IC50: 0.022 µM for the first, 0.026 µM for the second.

Compared with `CC(Oc1ccccc1CC(=O)O)c1cccc(-c2cccc(CN)c2)c1` (racemic) [Example 163, (±)-2-(2-(1-(3′-(aminomethyl)-[1,1′-biphenyl]-3-yl)ethoxy)phenyl)acetic acid], `NC(CCF)c1cccc(-c2cccc(COc3ccccc3CC(=O)O)c2)c1` (centres unmarked) [Example 278-B, 2-(2-((3′-(1-amino-3-fluoropropyl)-[1,1′-biphenyl]-3-yl)methoxy)phenyl)acetic acid] is 8-fold higher in IC50: 0.061 µM for the first, 0.49 µM for the second.

Compared with `C[C@@H](N)c1cccc(-c2cc(COc3ccccc3CC(=O)O)c3cn[nH]c3c2)c1F` [Example 211-C], `COc1ccc(-c2cccc([C@@H](C)N)c2F)cc1COc1ccccc1CC(=O)O` [Example 276, (R)-2-(2-((3′-(1-aminoethyl)-2′-fluoro-4-methoxy-[1,1′-biphenyl]-3-yl)methoxy)phenyl)acetic acid] is 18-fold higher in IC50: 0.009 µM for the first, 0.16 µM for the second.

Compared with `NCc1nc(-c2cccc(COc3ccccc3CC(=O)O)c2)cs1` [Example 190-K], `NCc1cccc(-c2cccc(COc3ccccc3CC(=O)O)n2)c1` [Example 160, 2-(2-((6-(3-(aminomethyl)phenyl)pyridin-2-yl)methoxy)phenyl)acetic acid] is 8.6-fold higher in IC50: 0.133 µM for the first, 1.14 µM for the second.

Compared with `NCc1cccc(-c2ccc(Cl)c(C(=O)Nc3ccccc3CC(=O)O)n2)c1` [Example 56-A, 2-(2-(6-(3-(Aminomethyl)phenyl)-3-chloropicolinamido)phenyl)acetic acid], `NCc1cccc(-c2cncc(C(=O)Nc3ccccc3CC(=O)O)c2)c1` [Example 40, 2-(2-(5-(3-(Aminomethyl)phenyl)nicotinamido)phenyl)acetic acid] is 120-fold higher in IC50: 0.107 µM for the first, 12.8 µM for the second. The first is the more potent here.

First: C[C@@H](N)c1cccc(-c2cc(COc3ccccc3CC(=O)O)cc(N3CCC3)c2)c1F [Example 247, (R)-2-(2-((3′-(1-aminoethyl)-5-(azetidin-1-yl)-2′-fluoro-[1,1′-biphenyl]-3-yl)methoxy)phenyl)acetic acid]
Second: C[C@@H](N)c1cccc(-c2cc(COc3ccccc3CC(=O)O)cc(OCC3(C)COC3)c2)c1F [Example 262, (R)-2-(2-((3′-(1-aminoethyl)-2′-fluoro-5-((3-methyloxetan-3-yl)methoxy)-[1,1′-biphenyl]-3-yl)methoxy)phenyl)acetic acid]
The IC50 of the first is 4.1-fold lower: 0.01 µM for the first, 0.041 µM for the second.

Compared with `NCc1cc(F)cc(-c2cc(C(=O)Nc3ccccc3CC(=O)O)cc(N3CCOCC3)c2)c1` [Example 77-B, 2-(2-(3′-(Aminomethyl)-5′-fluoro-5-morpholino-[1,1′-biphenyl]-3-ylcarboxamido)phenyl)acetic acid], `NCc1cc(F)cc(-c2cccc(S(=O)(=O)Nc3ccccc3CC(=O)O)c2)c1` [Example 49, 2-(2-(3′-(aminomethyl)-5′-fluoro-[1,1′-biphenyl]-3-ylsulfonamido)phenyl)acetic acid] is 41-fold higher in IC50: 0.055 µM for the first, 2.27 µM for the second. The first is the more potent here.

First: N[C@H](CCO)c1cccc(-c2cc(COc3ccccc3CC(=O)O)cc(NCC3CC3)c2)c1 [Example 94-C, (R)-2-(2-((3′-(1-amino-3-hydroxypropyl)-5-((cyclopropylmethyl)amino)-[1,1′-biphenyl]-3-yl)methoxy)phenyl)acetic acid]
Second: N[C@H](CO)c1cccc(-c2cc(COc3ccccc3CC(=O)O)cc(C(O)C(F)(F)F)c2)c1 (single isomer, unassigned) [116-G b) (tr = 3.4 min)]
The IC50 of the first is 3-fold higher: 0.027 µM for the first, 0.009 µM for the second. The second is the more potent here.

Compared with `C[C@@H](N)c1cccc(-c2cccc(C(=O)Nc3ccccc3CC(=O)O)c2)c1` [Example 90, (R)-2-(2-(3′-(1-aminoethyl)-[1,1′-biphenyl]-3-ylcarboxamido)phenyl)acetic acid], `CCOC[C@@H](N)c1cccc(-c2cccc(COc3ccccc3CC(=O)O)c2)c1` [Example 173, (S)-2-(2-((3′-(1-Amino-2-ethoxyethyl)-[1,1′-biphenyl]-3-yl)methoxy)phenyl)acetic acid] is 5.6-fold lower in IC50: 0.823 µM for the first, 0.147 µM for the second. The second is the more potent here.

`N[C@H](CO)c1cccc(-c2ccnc(COc3ccccc3CC(=O)O)c2)c1` [Example 170, (S)-2-(2-((4-(3-(1-Amino-2-hydroxyethyl)phenyl)pyridin-2-yl)methoxy)phenyl)acetic acid] was tested, and the IC50 was 0.022 µM.
